Laboratory results taken from US20250215013A1, “SUBSTITUTED TRICYCLIC COMPOUNDS AS PARP INHIBITORS AND THE USE THEREOF” (IMPACT THERAPEUTICS (SHANGHAI), INC., priority 2022, published 2025).

test system: MDA-MB-436 cells; assay: Growth inhibition assay against BRCA mutant human breast cancer MDA-MB-436 cell line (CCK-8); format: cell-based; details: Homo sapiens, MDA-MB-436, […], proliferation of MDA-MB-436 cells, 7 days

| SMILES | IC50 |
| --- | --- |
| CNC(=O)c1ccc(N2CCN(Cc3ccc4c([nH]c(=O)c5cn(C)nc54)c3F)CC2)c(C)n1 [Example 88, 7-((4-(2-methyl-6-(methylcarbamoyl)pyridin-3-yl)piperazin-1-yl)methyl)-6-fluoro-2-methyl-2,5-dihydro-4H-pyrazolo[4,3-c]quinolin-4-one] | 21.7 nM |
| NC(=O)c1ccc(N2CCN(Cc3ccc4c([nH]c(=O)c5occc54)c3F)CC2)c(F)n1 [Example 106, 7-((4-(2-fluoro-6-carbamoylpyridin-3-yl)piperazin-1-yl)methyl)-6-fluorofuro[2,3-c]quinolin-4(5H)-one] | 17.5 nM |
| CNC(=O)c1ccc(N2CCN(Cc3ccc4c(c3)[nH]c(=O)c3c4ccn3C)CC2)c(C)n1 [Example 11, 7-((4-(2-methyl-6-(methylcarbamoyl)pyridin-3-yl)piperazin-1-yl)methyl)-3-methyl-3,5-dihydro-4H-pyrrolo[2,3-c]quinolin-4-one] | 11.3 nM |
| CNC(=O)c1ccc(N2CCN(Cc3ccc4c([nH]c(=O)c5cncn54)c3F)CC2)cn1 [Example 145, 7-((4-(6-(methylcarbamoyl)pyridin-3-yl)piperazin-1-yl)methyl)-6-fluoroimidazo[1,5-a]quinoxalin-4(5H)-one] | > 100 nM |
| CNC(=O)c1ccc(N2CCN(Cc3ccc4c([nH]c(=O)c5occc54)c3F)CC2)cn1 [Example 148, 6-fluoro-7-((4-(6-(methylcarbamoyl)pyridin-3-yl)piperazin-1-yl)methyl)furo[2,3-c]quinolin-4(5H)-one] | 29.2 nM |
| CNC(=O)c1ccc(N2CCN(Cc3ccc4c(c3)[nH]c(=O)c3occc34)CC2)cn1 [Example 113, 7-((4-(6-(methylcarbamoyl)pyridin-3-yl)piperazin-1-yl)methyl)furo[2,3-c]quinolin-4(5H)-one] | 2.19 nM |
| CNC(=O)c1ccc(N2CCN(Cc3ccc4c(c3)[nH]c(=O)c3nocc34)CC2)c(F)n1 [Example 144, 7-((4-(2-fluoro-6-(methylcarbamoyl)pyridin-3-yl)piperazin-1-yl)methyl)isoxazolo[3,4-c]quinolin-4(5H)-one] | 1.9 nM |
| CNC(=O)c1ccc(N[C@@H]2CCN(Cc3ccc4c([nH]c(=O)c5c(C)cnn54)c3F)C2)cn1 [Example 134, (R)-6-fluoro-3-methyl-7-((3-((6-(methylcarbamoyl)pyridin-3-yl)amino)pyrrolidin-1-yl)methyl)pyrazolo[1,5-a]quinoxalin-4(5H)-one] | > 100 nM |
| CNC(=O)c1ccc(N2CCN(Cc3ccc4c([nH]c(=O)c5cocc54)c3F)CC2)cn1 [Example 149, 6-fluoro-7-((4-(6-(methylcarbamoyl)pyridin-3-yl)piperazin-1-yl)methyl)furo[3,4-c]quinolin-4(5H)-one] | 74.5 nM |
| CNC(=O)c1ccc(N2CCN(Cc3ccc4c([nH]c(=O)c5cn(C)nc54)c3F)CC2)c(F)n1 [Example 90, 7-((4-(2-fluoro-6-(methylcarbamoyl)pyridin-3-yl)piperazin-1-yl)methyl)-6-fluoro-2-methyl-2,5-dihydro-4H-pyrazolo[4,3-c]quinolin-4-one] | 28.7 nM |
| CNC(=O)c1ncc(N2CCN(Cc3ccc4c([nH]c(=O)c5c(C)cnn54)c3F)CC2)cc1F [Example 127, 7-((4-(5-fluoro-6-(methylcarbamoyl)pyridin-3-yl)piperazin-1-yl)methyl)-6-fluoro-3-methylpyrazolo[1,5-a]quinoxalin-4(5H)-one] | 55.3 nM |
| CNC(=O)c1ccc(N2CCN(Cc3ccc4c(c3)[nH]c(=O)c3ccn(C)c34)CC2)c(F)n1 [Example 24, 7-((4-(2-fluoro-6-(methylcarbamoyl)pyridin-3-yl)piperazin-1-yl)methyl)-1-methyl-1,5-dihydro-4H-pyrrolo[3,2-c]quinolin-4-one] | 1.11 nM |
| CNC(=O)c1ccc(N2CCN(Cc3ccc4c([nH]c(=O)c5occc54)c3Cl)CC2)c(F)n1 [Example 105, 7-((4-(2-fluoro-6-(methylcarbamoyl)pyridin-3-yl)piperazin-1-yl)methyl)-6-chlorofuro[2,3-c]quinolin-4(5H)-one] | > 100 nM |
| CNC(=O)c1ccc(N2CCN(Cc3ccc4c([nH]c(=O)c5c(C)cnn54)c3F)CC2)c(Cl)c1 [Example 155, 6-fluoro-7-((4-(2-chloro-4-(methylcarbamoyl)phenyl)piperazin-1-yl)methyl)-3-methylpyrazolo[1,5-a]quinoxalin-4(5H)-one] | 66.5 nM |
| CNC(=O)c1ccc(N2CCN(Cc3ccc4c([nH]c(=O)c5c(C)cnn54)c3F)CC2)c(F)c1 [Example 154, 6-fluoro-7-((4-(2-fluoro-4-(methylcarbamoyl)phenyl)piperazin-1-yl)methyl)-3-methylpyrazolo[1,5-a]quinoxalin-4(5H)-one] | 95.9 nM |
| CNC(=O)c1ccc(N2CCN(Cc3ccc4c(c3)[nH]c(=O)c3ccoc34)CC2)c(F)n1 [Example 114, 7-((4-(2-fluoro-6-(methylcarbamoyl)pyridin-3-yl)piperazin-1-yl)methyl)furo[3,2-c]quinolin-4(5H)-one] | 1.32 nM |

Further lines, results first:

| IC50 | SMILES |
| --- | --- |
| 47 nM | CNC(=O)c1ccc(N2CCN(Cc3ccc4c([nH]c(=O)c5c(C)cnn54)c3Cl)CC2)c(F)n1 [Example 174, 6-chloro-7-((4-(2-fluoro-6-(methylcarbamoyl)pyridin-3-yl)piperazin-1-yl)methyl)-3-methylpyrazolo[1,5-a]quinoxalin-4(5H)-one] |
| 8.59 nM | N#Cc1ccc(N2CCN(Cc3ccc4c([nH]c(=O)c5c(F)cnn54)c3F)CC2)c(F)n1 [Example 195, 7-((4-(2-fluoro-6-cyanopyridin-3-yl)piperazin-1-yl)methyl)-3,6-difluoropyrazolo[1,5-a]quinoxalin-4(5H)-one] |
| 42.5 nM | CNC(=O)c1ccc(N2CCN(Cc3ccc4c([nH]c(=O)c5c(C)cnn54)c3C)CC2)c(C)n1 [Example 172, 7-((4-(2-methyl-6-(methylcarbamoyl)pyridin-3-yl)piperazin-1-yl)methyl)-3,6-dimethylpyrazolo[1,5-a]quinoxalin-4(5H)-one] |
| > 100 nM | CNC(=O)c1ccc(N2CCN(Cc3ccc4c([nH]c(=O)c5c(C(C)C)cnn54)c3F)CC2)c(F)n1 [Example 203, 7-((4-(2-fluoro-6-(methylcarbamoyl)pyridin-3-yl)piperazin-1-yl)methyl)-3-isopropyl-6-fluoropyrazolo[1,5-a]quinoxalin-4(5H)-one] |
| > 100 nM | CNC(=O)c1ccc(N2CCN(Cc3ccc4c([nH]c(=O)c5c(C)cnn54)c3F)CC2)cc1F [Example 161, 6-fluoro-7-((4-(3-fluoro-4-(methylcarbamoyl)phenyl)piperazin-1-yl)methyl)-3-methylpyrazolo[1,5-a]quinoxalin-4(5H)-one] |
| 39.7 nM | CNC(=O)c1ccc(N2CCN(Cc3ccc4c([nH]c(=O)c5c(F)cnn54)c3Cl)CC2)c(C)n1 [Example 193, 3-fluoro-7-((4-(2-methyl-6-(methylcarbamoyl)pyridin-3-yl)piperazin-1-yl)methyl)-6-chloropyrazolo[1,5-a]quinoxalin-4(5H)-one] |
| 14.4 nM | CNC(=O)c1ccc(N2CCN(Cc3ccc4c([nH]c(=O)c5c(C)cnn54)c3C)CC2)c(F)n1 [Example 171, 7-((4-(2-fluoro-6-(methylcarbamoyl)pyridin-3-yl)piperazin-1-yl)methyl)-3,6-dimethylpyrazolo[1,5-a]quinoxalin-4(5H)-one] |
